“And” between values parts separate entries of the source, which are not always exact repeats. Equal values may be shown once. Inconclusive results are not listed.
System: BDF1 mice, colon carcinoma 38 sc, T/C %
Assay: NCI In Vivo Anticancer Drug Screen. Data for tumor model Colon Carcinoma 38 (subcutaneous) in B6D2F1 (BDF1) mice
Details: endpoint: median tumor weight (est.), higher = larger tumour
Protocol: The antitumor activity of compounds was measured in mice bearing transplantable tumors. Survival or tumor size were measured and the results are expressed as the measurement made in the treated group (T) divided by the measurement made in the vehicle treated control group (C). The tumor model used in this assay is Colon Carcinoma 38 (subcutaneous) in B6D2F1 (BDF1) mice

[1] = dose: 12.5 mg/kg/injection, schedule: Q07DX002 (ip), vehicle: saline with Tween-80
[2] = dose: 12.5 mg/kg/injection, schedule: Q07DX002 (ip), vehicle: saline
[3] = dose: 25.0 mg/kg/injection, schedule: Q07DX002 (ip), vehicle: saline with Tween-80
[4] = dose: 25.0 mg/kg/injection, schedule: Q07DX002 (ip), vehicle: saline
[5] = dose: 50.0 mg/kg/injection, schedule: Q07DX002 (ip), vehicle: saline
[6] = dose: 100.0 mg/kg/injection, schedule: Q07DX002 (ip), vehicle: saline
[7] = dose: 200.0 mg/kg/injection, schedule: Q07DX002 (ip), vehicle: saline
[8] = dose: 400.0 mg/kg/injection, schedule: Q07DX002 (ip), vehicle: saline
[9] = dose: 100.0 mg/kg/injection, schedule: Q07DX002 (ip), vehicle: suspension in saline
[10] = dose: 100.0 mg/kg/injection, schedule: Q07DX002 (ip), vehicle: saline with Tween-80

COC12C(COC(N)=O)C3=C(C(=O)C(C)=C(N)C3=O)N1CC1C2N1C (configuration not stated)
T/C (dose: 2.0 mg/kg/injection, schedule: Q07DX002 (ip), vehicle: saline): 93 % of control | T/C (dose: 4.0 mg/kg/injection, schedule: Q07DX002 (ip), vehicle: saline): 87 % of control | T/C (dose: 8.0 mg/kg/injection, schedule: Q07DX002 (ip), vehicle: saline): 100 % of control | T/C (dose: 16.0 mg/kg/injection, schedule: Q07DX002 (ip), vehicle: saline): 55 % of control | T/C (dose: 32.0 mg/kg/injection, schedule: Q07DX002 (ip), vehicle: saline): 11 % of control | T/C (dose: 64.0 mg/kg/injection, schedule: Q07DX002 (ip), vehicle: saline): 12 % of control

OCC1OC(n2cnc3c(=S)nc[nH]c32)C(O)C1O (configuration not stated)
T/C [1]: 61 % of control | T/C [2]: 90 % of control | T/C [3]: 97 % of control and 118 % of control | T/C [4]: 101 % of control | T/C (dose: 50.0 mg/kg/injection, schedule: Q07DX002 (ip), vehicle: saline with Tween-80): 77 % of control and 83 % of control and 80 % of control | T/C [5]: 14 % of control | T/C [6]: 17 % of control | T/C [7]: 46 % of control | T/C [8]: 22 % of control | T/C (dose: 800.0 mg/kg/injection, schedule: Q07DX002 (ip), vehicle: saline with Tween-80): 33 % of control and 34 % of control and 57 % of control | T/C (dose: 1600.0 mg/kg/injection, schedule: Q07DX002 (ip), vehicle: saline with Tween-80): 28 % of control

NC1=NC(=O)N2CC12 (configuration not stated)
T/C [4]: 81 % of control | T/C [5]: 82 % of control and 83 % of control | T/C [6]: 81 % of control and 104 % of control | T/C [7]: 66 % of control and 70 % of control | T/C [8]: 79 % of control

Nc1nc2nc[nH]c2c(=O)[nH]1
T/C [9]: 90 % of control | T/C (dose: 200.0 mg/kg/injection, schedule: Q07DX002 (ip), vehicle: suspension in saline): 83 % of control

CN(C)c1ncnc2c1ncn2C1OC(CO)C(N)C1O (configuration not stated)
T/C [2]: 110 % of control | T/C [4]: 85 % of control | T/C [5]: 105 % of control | T/C [6]: 106 % of control | T/C [7]: 63 % of control

O=C1CN(Cc2ccc3c(c2)OCO3)NO1
T/C [1]: 76 % of control and 89 % of control | T/C [3]: 81 % of control and 84 % of control

Cc1cc(Nc2ccc3c(c2)OCO3)c2cc3c(cc2n1)OCO3
T/C (dose: 50.0 mg/kg/injection, schedule: Q07DX002 (ip), vehicle: Klucel (hydroxypropylcellulose) (HPC)): 86 % of control | T/C (dose: 100.0 mg/kg/injection, schedule: Q07DX002 (ip), vehicle: Klucel (hydroxypropylcellulose) (HPC)): 85 % of control | T/C (dose: 200.0 mg/kg/injection, schedule: Q07DX002 (ip), vehicle: Klucel (hydroxypropylcellulose) (HPC)): 36 % of control

O=c1n[n+]([O-])ccn1C1OC(CO)C(O)C1O (configuration not stated)
T/C [6]: 160 % of control | T/C [7]: 117 % of control | T/C (dose: 600.0 mg/kg/injection, schedule: Q07DX002 (ip), vehicle: saline): 73 % of control

NC(=S)N/N=C/c1ccc(O)cn1
T/C [4]: 123 % of control | T/C (dose: 25.0 mg/kg/injection, schedule: Q07DX002 (ip), vehicle: suspension in saline): 83 % of control | T/C [5]: 67 % of control | T/C (dose: 50.0 mg/kg/injection, schedule: Q07DX002 (ip), vehicle: suspension in saline): 72 % of control | T/C [6]: 67 % of control | T/C [9]: 108 % of control | T/C [7]: 72 % of control | T/C [8]: 71 % of control | T/C (dose: 400.0 mg/kg/injection, schedule: Q07DX002 (ip), vehicle: suspension in saline): 105 % of control | T/C (dose: 800.0 mg/kg/injection, schedule: Q07DX002 (ip), vehicle: saline): 67 % of control | T/C (dose: 800.0 mg/kg/injection, schedule: Q07DX002 (ip), vehicle: suspension in saline): 110 % of control

CC(O)CCC(=O)c1ccoc1 (configuration not stated)
T/C (dose: 0.63 mg/kg/injection, schedule: Q07DX002 (ip), vehicle: saline): 150 % of control | T/C (dose: 1.25 mg/kg/injection, schedule: Q03HX006 (ip), vehicle: saline): 42 % of control | T/C (dose: 2.5 mg/kg/injection, schedule: Q03HX006 (ip), vehicle: saline): 64 % of control | T/C (dose: 2.5 mg/kg/injection, schedule: Q07DX002 (ip), vehicle: saline): 166 % of control | T/C (dose: 5.0 mg/kg/injection, schedule: Q03HX006 (ip), vehicle: saline): 58 % of control | T/C (dose: 5.0 mg/kg/injection, schedule: Q07DX002 (ip), vehicle: saline): 150 % of control | T/C (dose: 10.0 mg/kg/injection, schedule: Q07DX002 (ip), vehicle: saline): 185 % of control

O=C1c2ccccc2C(=O)c2c1cn1c2Cc2ccccc2C1
T/C (dose: 5.0 mg/kg/injection, schedule: Q01DX005 (iv), vehicle: other): 36 % of control | T/C (dose: 10.0 mg/kg/injection, schedule: Q01DX005 (iv), vehicle: other): 36 % of control | T/C (dose: 18.0 mg/kg/injection, schedule: Q07DX002 (ip), vehicle: Klucel (hydroxypropylcellulose) (HPC)): 219 % of control | T/C (dose: 18.75 mg/kg/injection, schedule: Q07DX002 (ip), vehicle: Klucel (hydroxypropylcellulose) (HPC)): 63 % of control | T/C (dose: 20.0 mg/kg/injection, schedule: Q01DX005 (iv), vehicle: other): 36 % of control | T/C (dose: 37.0 mg/kg/injection, schedule: Q07DX002 (ip), vehicle: Klucel (hydroxypropylcellulose) (HPC)): 89 % of control | T/C (dose: 37.5 mg/kg/injection, schedule: Q07DX002 (ip), vehicle: Klucel (hydroxypropylcellulose) (HPC)): 63 % of control | T/C (dose: 40.0 mg/kg/injection, schedule: Q01DX005 (iv), vehicle: other): 23 % of control | T/C (dose: 75.0 mg/kg/injection, schedule: Q07DX002 (ip), vehicle: Klucel (hydroxypropylcellulose) (HPC)): 38 % of control and 41 % of control and 59 % of control | T/C (dose: 75.0 mg/kg/injection, schedule: Q07DX002 (iv), vehicle: other): 95 % of control | T/C (dose: 100.0 mg/kg/injection, schedule: Q07DX002 (ip), vehicle: other): 74 % of control | T/C [10]: 63 % of control | T/C (dose: 100.0 mg/kg/injection, schedule: Q07DX002 (iv), vehicle: other): 120 % of control | T/C (dose: 150.0 mg/kg/injection, schedule: Q07DX002 (ip), vehicle: other): 41 % of control | T/C (dose: 200.0 mg/kg/injection, schedule: Q07DX002 (ip), vehicle: other): 41 % of control | T/C (dose: 200.0 mg/kg/injection, schedule: Q07DX002 (ip), vehicle: saline with Tween-80): 61 % of control | T/C (dose: 300.0 mg/kg/injection, schedule: Q07DX002 (ip), vehicle: Klucel (hydroxypropylcellulose) (HPC)): 8 % of control and 13 % of control

COc1cccc2c1C(=O)c1c(O)c3c(c(O)c1C2=O)CC(O)(/C(C)=N/NC(=O)CCCCC(=O)N/N=C(\C)C1(O)Cc2c(O)c4c(c(O)c2C(OC2CC(N)C(O)C(C)O2)C1)C(=O)c1c(OC)cccc1C4=O)CC3OC1CC(N)C(O)C(C)O1 (configuration not stated)
T/C (dose: 6.25 mg/kg/injection, schedule: Q07DX002 (ip), vehicle: saline): 46 % of control | T/C (dose: 6.25 mg/kg/injection, schedule: Q07DX002 (ip), vehicle: water): 68 % of control | T/C [2]: 32 % of control | T/C (dose: 12.5 mg/kg/injection, schedule: Q07DX002 (ip), vehicle: water): 21 % of control

N=C(N)CCNC(=O)C1CCC(N)=N1 (configuration not stated)
T/C (dose: 3.38 mg/kg/injection, schedule: Q07DX002 (ip), vehicle: saline): 97 % of control | T/C (dose: 6.75 mg/kg/injection, schedule: Q07DX002 (ip), vehicle: saline): 115 % of control | T/C (dose: 13.5 mg/kg/injection, schedule: Q07DX002 (ip), vehicle: saline): 120 % of control | T/C (dose: 27.0 mg/kg/injection, schedule: Q07DX002 (ip), vehicle: saline): 91 % of control

CCSC(=O)N1c2ccc(OC)cc2C=CC1C#N (configuration not stated)
T/C [1]: 70 % of control | T/C [3]: 81 % of control | T/C [10]: 107 % of control | T/C (dose: 175.0 mg/kg/injection, schedule: Q07DX002 (ip), vehicle: saline with Tween-80): 97 % of control | T/C (dose: 350.0 mg/kg/injection, schedule: Q07DX002 (ip), vehicle: saline with Tween-80): 115 % of control and 100 % of control | T/C (dose: 400.0 mg/kg/injection, schedule: Q07DX002 (ip), vehicle: saline with Tween-80): 61 % of control | T/C (dose: 1400.0 mg/kg/injection, schedule: Q07DX002 (ip), vehicle: saline with Tween-80): 75 % of control and 89 % of control
